Among the data in US20250213735A1, “NEUROPEPTIDE Y1 RECEPTOR (NPY1R) TARGETED THERAPEUTICS AND USES THEREOF” (Radionetics Oncology, Inc., priority 2023, published 2025) are Ki values, retold here.

Numbered stars: 1 amine (or outer) side, 2 acyl side, 3 side chain; on linkers, the order of the positions; unused ones are H or OH. Square brackets hold non-standard residues; d marks the D form. Peptide text beside a SMILES is read from it. * marks the point of attachment. dArg(Nω-CONH(CH2)2NHCOEt) = CCC(=O)NCCNC(=O)/N=C(/N)NCCC[C@@H](N)C(=O)O; DOTA = O=C(O)CN1CCN(CC(=O)O)CCN(CC(=O)*)CCN(CC(=O)O)CC1; X1 = O=C([C@H](c1ccc(OCCCN[*:1])cc1)N1Cc2ccccc2C1)[*:2]; NH(2,6-F2-4-OH-benzyl) = Oc1cc(F)c(CN*)c(F)c1; βAla = NCCC(=O)O

For this test, the target named is hNPY1R (Homo sapiens (Human), UniProt P25929). Briefly: NPY1R binding assay (SK-N-MC membrane, [125I]-Peptide YY competition).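 Further: bound radioligand separated by filtration over GF/C filter plates and counted, Ki obtained by non-linear regression.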 The conditions noted are these: crude SK-N-MC membranes endogenously expressing NPY1R; [125I]-Peptide YY (human) 0.05 nM; 120 min at room temperature; read-out: hNPY1R binding Ki.
hNPY1R, sequence (P25929 whole entry): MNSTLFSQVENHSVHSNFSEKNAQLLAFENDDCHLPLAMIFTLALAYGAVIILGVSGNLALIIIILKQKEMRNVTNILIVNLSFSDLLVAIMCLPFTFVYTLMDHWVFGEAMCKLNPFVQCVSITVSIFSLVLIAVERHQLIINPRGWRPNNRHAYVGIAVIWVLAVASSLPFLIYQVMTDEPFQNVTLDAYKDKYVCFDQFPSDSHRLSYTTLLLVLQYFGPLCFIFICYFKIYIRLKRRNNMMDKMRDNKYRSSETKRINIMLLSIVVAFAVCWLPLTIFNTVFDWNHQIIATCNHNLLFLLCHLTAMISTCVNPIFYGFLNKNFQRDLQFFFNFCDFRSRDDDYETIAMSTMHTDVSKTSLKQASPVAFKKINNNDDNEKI
Usually Ki stands for the equilibrium dissociation constant of an inhibitor or competing ligand from its target. On to `CCC(=O)NCCNC(=O)/N=C(/N)NCCC[C@@H](NC(=O)[C@H](c1ccc(OCCCNC(=O)[C@@H](CO)NC(=O)[C@@H](CO)NC(=O)[C@@H](CO)NC(=O)CCNC(=O)CN2CCN(CC(=O)O)CCN(CC(=O)O)CCN(CC(=O)O)CC2)cc1)N1Cc2ccccc2C1)C(=O)NCc1c(F)cc(O)cc1F` [compound 54, 2,2′,2″-(10-((8R,11R,14R)-19-(4-((1S,4R,Z)-9-amino-4-((2,6-difluoro-4-hydroxybenzyl)carbamoyl)-1-(isoindolin-2-yl)-2,11,16-trioxo-3,8,10,12,15-pentaazaoctadec-9-en-1-yl)phenoxy)-8,11,14-tris(hydroxymethyl)-2,6,9,12,15-pentaoxo-3,7,10,13,16-pentaazanonadecyl)-1,4,7,10-tetraazacyclododecane-1,4,7-triyl)triacetic acid] ({DOTA-βAla}-[dS][dS][dS][X1][dArg(Nω-CONH(CH2)2NHCOEt)]-{NH(2,6-F2-4-OH-benzyl)}), for which the Ki was less than 0.01 µM.

Turning to `CCC(=O)NCCNC(=O)/N=C(/N)NCCC[C@@H](NC(=O)[C@H](c1ccc(OCCCNC(=O)CCN(C)CCNC(=O)CN2CCN(CC(=O)O)CCN(CC(=O)O)CCN(CC(=O)O)CC2)cc1)N1Cc2ccccc2C1)C(=O)NCc1c(F)cc(O)cc1F` [compound 55, 2,2′,2″-(10-(2-((2-((3-((3-(4-((1S,4R,Z)-9-amino-4-((2,6-difluoro-4-hydroxybenzyl)carbamoyl)-1-(isoindolin-2-yl)-2,11,16-trioxo-3,8,10,12,15-pentaazaoctadec-9-en-1-yl)phenoxy)propyl)amino)-3-oxopropyl)(methyl)amino)ethyl)amino)-2-oxoethyl)-1,4,7,10-tetraazacyclododecane-1,4,7-triyl)triacetic acid], the Ki was less than 0.01 µM.

As for `CCC(=O)NCCNC(=O)/N=C(/N)NCCC[C@@H](NC(=O)[C@H](c1ccc(OCCCN(C)CCCCCNC(=O)CN2CCN(CC(=O)O)CCN(CC(=O)O)CCN(CC(=O)O)CC2)cc1)N1Cc2ccccc2C1)C(=O)NCc1c(F)cc(O)cc1F` [compound 56, 2,2′,2″-(10-(2-((5-((3-(4-((1S,4R,Z)-9-amino-4-((2,6-difluoro-4-hydroxybenzyl)carbamoyl)-1-(isoindolin-2-yl)-2,11,16-trioxo-3,8,10,12,15-pentaazaoctadec-9-en-1-yl)phenoxy)propyl)(methyl)amino)pentyl)amino)-2-oxoethyl)-1,4,7,10-tetraazacyclododecane-1,4,7-triyl)triacetic acid], the Ki was less than 0.01 µM.

`CCC(=O)NCCNC(=O)/N=C(/N)NCCC[C@@H](NC(=O)[C@H](c1ccc(OCCCCNC(=O)CCCCCNC(=O)CN2CCN(CC(=O)O)CCN(CC(=O)O)CCN(CC(=O)O)CC2)cc1)N1Cc2ccccc2C1)C(=O)NCc1ccc(O)cc1` [compound 57, 2,2′,2″-(10-(2-((6-((4-(4-((1S,4R,Z)-9-amino-4-((4-hydroxybenzyl)carbamoyl)-1-(isoindolin-2-yl)-2,11,16-trioxo-3,8,10,12,15-pentaazaoctadec-9-en-1-yl)phenoxy)butyl)amino)-6-oxohexyl)amino)-2-oxoethyl)-1,4,7,10-tetraazacyclododecane-1,4,7-triyl)triacetic acid]: the Ki was less than 0.01 µM.

`CCC(=O)NCCNC(=O)/N=C(/N)NCCC[C@@H](NC(=O)[C@H](c1ccc(OCCNC(=O)CCCCCNC(=O)CN2CCN(CC(=O)O)CCN(CC(=O)O)CCN(CC(=O)O)CC2)cc1)N1Cc2ccccc2C1)C(=O)NCc1ccc(O)cc1` [compound 58, 2,2′,2″-(10-(2-((6-((2-(4-((1S,4R,Z)-9-amino-4-((4-hydroxybenzyl)carbamoyl)-1-(isoindolin-2-yl)-2,11,16-trioxo-3,8,10,12,15-pentaazaoctadec-9-en-1-yl)phenoxy)ethyl)amino)-6-oxohexyl)amino)-2-oxoethyl)-1,4,7,10-tetraazacyclododecane-1,4,7-triyl)triacetic acid]: the Ki was less than 0.01 µM.

Regarding `CCC(=O)NCCNC(=O)/N=C(/N)NCCC[C@@H](NC(=O)[C@H](c1ccc(OCCCNC(=O)CN2CCN(CC(=O)O)CCN(CC(=O)O)CCN(CC(=O)O)CC2)cc1)N1Cc2ccccc2C1)C(=O)NCc1ccc(O)cc1` [compound 59, 2,2′,2″-(10-(2-((3-(4-((1S,4R,Z)-9-amino-4-((4-hydroxybenzyl)carbamoyl)-1-(isoindolin-2-yl)-2,11,16-trioxo-3,8,10,12,15-pentaazaoctadec-9-en-1-yl)phenoxy)propyl)amino)-2-oxoethyl)-1,4,7,10-tetraazacyclododecane-1,4,7-triyl)triacetic acid], the Ki is less than 0.01 µM.

`CCC(=O)NCCNC(=O)/N=C(/N)NCCC[C@@H](NC(=O)C(c1ccccc1)N1Cc2ccccc2C1)C(=O)NCc1ccc(O)cc1` (stereo partly drawn) [compound 60, (2R)—N-(4-hydroxybenzyl)-2-(2-(isoindolin-2-yl)-2-phenylacetamido)-5-((Z)-2-((2-propionamidoethyl)carbamoyl)guanidino)pentanamide]: the Ki was less than 0.01 µM.

Turning to `CCC(=O)NCCNC(=O)/N=C(/N)NCCC[C@@H](NC(=O)[C@H](c1cccc(NCCCN)c1)N1Cc2ccccc2C1)C(=O)NCc1ccc(O)cc1` [compound 63, (R)-2-((S)-2-(3-((3-aminopropyl)amino)phenyl)-2-(isoindolin-2-yl)acetamido)-N-(4-hydroxybenzyl)-5-((Z)-2-((2-propionamidoethyl)carbamoyl)guanidino)pentanamide], the inhibitory constant (Ki) is less than 0.01 µM.

Consider `CCNC(=O)/N=C(/N)NCCC[C@@H](NC(=O)[C@H](c1ccccc1)N1Cc2cccc(NCCCN)c2C1)C(=O)NCc1c(F)cc(O)cc1F` [compound 65, (R)-2-((S)-2-(4-((3-aminopropyl)amino)isoindolin-2-yl)-2-phenylacetamido)-N-(2,6-difluoro-4-hydroxybenzyl)-5-((Z)-2-(ethylcarbamoyl)guanidino)pentanamide], for which the inhibitory constant (Ki) is less than 0.01 µM.

As to `CCNC(=O)/N=C(/N)NCCC[C@@H](NC(=O)C(c1ccccc1)N1Cc2ccccc2C1)C(=O)NCc1c(F)cc(O)cc1F` (stereo partly drawn) [compound 67, (2R)—N-(2,6-difluoro-4-hydroxybenzyl)-5-((Z)-2-(ethylcarbamoyl)guanidino)-2-(2-(isoindolin-2-yl)-2-phenylacetamido)pentanamide], the Ki was less than 0.01 µM.

Turning to `N=C(N)NCCC[C@@H](NC(=O)C(c1ccccc1)N1Cc2ccccc2C1)C(=O)NCc1ccc(O)cc1` (stereo partly drawn) [compound 68, (2R)-5-guanidino-N-(4-hydroxybenzyl)-2-(2-(isoindolin-2-yl)-2-phenylacetamido)pentanamide], the Ki is 0.01 to 0.1 µM.

Turning to `N=C(N)NCCC[C@@H](NC(=O)[C@H](c1ccccc1)N1Cc2ccccc2C1)C(=O)NCc1c(F)cc(O)cc1F` [compound 69, (R)—N-(2,6-difluoro-4-hydroxybenzyl)-5-guanidino-2-((S)-2-(isoindolin-2-yl)-2-phenylacetamido)pentanamide], the inhibitory constant (Ki) was less than 0.01 µM.

On to `N=C(N)NCCC[C@@H](NC(=O)[C@H](c1ccccc1)N1Cc2ccccc2C1)C(=O)NCc1ccc(O)cc1` [compound 70, (R)-5-guanidino-N-(4-hydroxybenzyl)-2-((S)-2-(isoindolin-2-yl)-2-phenylacetamido)pentanamide], for which the inhibitory constant (Ki) fell in the range of 0.01 to 0.1 µM.

With `N=C(N)NCCC[C@@H](NC(=O)C(c1ccccc1)N1CCCCC1)C(=O)NCc1ccc(O)cc1` (stereo partly drawn) [compound 72, (2R)-5-guanidino-N-(4-hydroxybenzyl)-2-(2-phenyl-2-(piperidin-1-yl)acetamido)pentanamide], the Ki was in the range of 0.1 to 1 µM.
